According to patent US9079866B2, “Flap modulators” (JANSSEN PHARMACEUTICA NV, priority 2013, dated 2015):
Structures can show the parent of a compound that is named as a salt. Where two headings read alike, the source gives them in different places.

How the values were obtained:
human FLAP = human FLAP (Homo sapiens (Human), UniProt P20292); test: FLAP binding assay (HTRF format)
Procedure, shortened: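 HTRF ratio read-out; two independent plates, samples in duplicate on each, values averaged across plates.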

[1] = system: leukotriene pathway in human whole blood (LTB4 levels); test: Human whole blood assay (A23187-stimulated LTB4); assay type: cell-based; details: read-out: LTB4 IC50 1:1
Procedure, shortened: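 Heparinised human whole blood, diluted 1:1 in RPMI, was pre-incubated with test compounds for 15 min at 37° Celsius, then stimulated with A23187 (7 μg/mL) for 30 min at 37° Celsius. Plasma LTB4 was measured by immunoassay kit; IC50 from 4-parameter fit; single replicate, at least one healthy donor.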

[2] = Homo sapiens, human whole blood diluted 1:1, A23187-stimulated
[3] = human FLAP wild type, HTRF format, average of two plates, duplicates
[4] = Homo sapiens, human whole blood diluted 1:1 in RPMI, A23187-stimulated LTB4

human FLAP, sequence (P20292 whole entry): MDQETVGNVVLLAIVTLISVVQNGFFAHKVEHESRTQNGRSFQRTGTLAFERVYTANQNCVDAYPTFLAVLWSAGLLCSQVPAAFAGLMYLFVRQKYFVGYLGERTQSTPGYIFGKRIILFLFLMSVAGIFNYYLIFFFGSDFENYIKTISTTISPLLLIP

## N#CC1(S(=O)(=O)c2ccccc2-c2ccc(-c3cnc(N)cn3)c(F)c2)CCCC1 [Example 730, 1-{[4′-(5-Aminopyrazin-2-yl)-3′-fluorobiphenyl-2-yl]sulfonyl}cyclopentanecarbonitrile]
Human FLAP; wild type FLAP, HTRF format
  Ki: 6.7 nM
[1]; [2]
  IC50: 136 nM

## CCS(=O)(=O)N(C)c1ccccc1-c1ccc(-c2cnc(N)cn2)c(F)c1 [Example 494, N-[4′-(5-Aminopyrazin-2-yl)-3′-fluorobiphenyl-2-yl]-N-methylethanesulfonamide]
Human FLAP; wild type FLAP, HTRF format
  Ki: 32 nM
[1]; [2]
  IC50: 99 nM

## COc1c(-c2ccccc2)ccc(-c2cnc(N)cn2)c1F [Example 834, 5-(3-Fluoro-2-methoxybiphenyl-4-yl)pyrazin-2-amine]
Human FLAP; wild type FLAP, HTRF format
  Ki: 48.9 nM
[1]; [2]
  IC50: 1090 nM

## NC[C@H]1CCCN1S(=O)(=O)c1ccccc1-c1ccc(-c2cnc(N)cn2)c(F)c1 (stereo in doubt) [Example 94, 5-(2′-{[2-(Aminomethyl)pyrrolidin-1-yl]sulfonyl}-3-fluorobiphenyl-4-yl)pyrazin-2-amine]
Human FLAP; [3]
  Ki: 76 nM
[1]; [4]
  IC50: 235 nM

## Nc1ccc(-c2ccc(-c3ccccc3S(=O)(=O)N3CCCCC3)cc2F)cn1 [Example 345, 5-(3-Fluoro-2′-(piperidin-1-ylsulfonyl)-[1,1′-biphenyl]-4-yl)pyridin-2-amine]
Human FLAP; [3]
  Ki: 28 nM
[1]; [4]
  IC50: 259 nM

## CNS(=O)(=O)c1ccccc1-c1ccc(-c2cnc(N)cn2)c(F)c1 [Example 15, 4′-(5-Aminopyrazin-2-yl)-3′-fluoro-N-methylbiphenyl-2-sulfonamide]
Human FLAP; [3]
  Ki: 10 nM
[1]; [4]
  IC50: 59 nM

## CC(C)(C)NS(=O)(=O)c1ccccc1-c1ccc(-c2cnc(N)nc2C(F)(F)F)c(F)c1 [Example 453, 4′-[2-Amino-4-(trifluoromethyl)pyrimidin-5-yl]-N-tert-butyl-3′-fluorobiphenyl-2-sulfonamide trifluoroacetic acid salt]
Human FLAP; wild type FLAP, HTRF format
  Ki: > 10000 nM
[1]; [2]
  IC50: > 10000 nM

## Nc1cnc(-c2ccc(-c3cccnc3OC3CCOCC3)cc2F)cn1 [Example 653, 5-{2-Fluoro-4-[2-(tetrahydro-2H-pyran-4-yloxy)pyridin-3-yl]phenyl}pyrazin-2-amine]
Human FLAP; wild type FLAP, HTRF format
  Ki: 17.3 nM
[1]; [2]
  IC50: 527 nM

## CC(CO)NS(=O)(=O)c1ccccc1-c1ccc(-c2ccc(N)nc2)c(F)c1 (stereo in doubt) [Example 352, (R)-4′-(6-Aminopyridin-3-yl)-3′-fluoro-N-(1-hydroxypropan-2-yl)-[1,1′-biphenyl]-2-sulfonamide]
Human FLAP; [3]
  Ki: 16 nM
[1]; human whole blood diluted 1:1 in RPMI, A23187-stimulated LTB4
  IC50: 64 nM

## Nc1ncc(-c2ccc(-c3ccccc3S(=O)(=O)N3CCNC(=O)C3)cn2)cn1 [Example 687, 4-({2-[6-(2-Aminopyrimidin-5-yl)pyridin-3-yl]phenyl}sulonyl)piperazin-2-one]
Human FLAP; wild type FLAP, HTRF format
  Ki: 740 nM
[1]; [2]
  IC50: 3550 nM

## CC(C)(C)C(=O)Nc1ncccc1-c1ccc(-c2cnc3[nH]ccc3c2)c(F)c1 [Example 802, N-{3-[3-Fluoro-4-(1H-pyrrolo[2,3-b]pyridin-5-yl)phenyl]pyridin-2-yl}-2,2-dimethylpropanamide]
Human FLAP; wild type FLAP, HTRF format
  Ki: > 10000 nM
[1]; [2]
  IC50: 0.994 nM

## Nc1cnc(-c2ccc(-c3ccccc3S(=O)(=O)N[C@H]3CC[C@@H](N)CC3)cc2F)cn1 [Example 134, cis-N-(4-Aminocyclohexyl)-4′-(5-aminopyrazin-2-yl)-3′-fluorobiphenyl-2-sulfonamide]
Human FLAP; [3]
  Ki: 1 nM
[1]; [4]
  IC50: > 1000 nM

## CC(C)(C)NS(=O)(=O)c1ccccc1-c1ccc(-c2ccc3[nH]cnc3c2)c(F)c1 [Example 422, 4′-(1H-Benzimidazol-5-yl)-N-tert-butyl-3′-fluorobiphenyl-2-sulfonamide]
Human FLAP; wild type FLAP, HTRF format
  Ki: 3 nM
[1]; [2]
  IC50: 146 nM

## C[C@@H](NS(=O)(=O)c1ccccc1-c1ccc(-c2cnc(N)nc2)c(F)c1)C(F)(F)F [Example 268, 4′-(2-Aminopyrimidin-5-yl)-3′-fluoro-N-[(1R)-2,2,2-trifluoro-1-methylethyl]biphenyl-2-sulfonamide trifluoroacetic acid salt]
Human FLAP; read-out: FLAP Binding wild type HTRF Ki
  Ki: 11 nM
[1]; [4]
  IC50: 56 nM

## CS(=O)(=O)N1CCN(S(=O)(=O)c2ccccc2-c2ccc(-c3cnc(N)cn3)c(F)c2)CC1 [Example 56, 5-(3-Fluoro-2′-{[4-(methylsulfonyl)piperazin-1-yl]sulfonyl}biphenyl-4-yl)pyrazin-2-amine]
Human FLAP; [3]
  Ki: 11 nM
[1]; [4]
  IC50: 3520 nM

## Nc1ccc(-c2ccc(-c3ccccc3S(=O)(=O)N3CCCC3)cc2F)cn1 [Example 344, 5-(3-Fluoro-2′-(pyrrolidin-1-ylsulfonyl)-[1,1′-biphenyl]-4-yl)pyridin-2-amine]
Human FLAP; [3]
  Ki: 81 nM
[1]; [4]
  IC50: > 10000 nM

## Nc1ncc(-c2ccc(-c3cccnc3O[C@H]3CC[C@H](N)CC3)cc2F)cn1 [Example 651, 5-(4-{2-[(trans-4-Aminocyclohexyl)oxy]pyridin-3-yl}-2-fluorophenyl)pyrimidin-2-amine]
Human FLAP; wild type FLAP, HTRF format
  Ki: 306 nM
[1]; [2]
  IC50: 1540 nM

## N#Cc1cccnc1Oc1ccccc1-c1ccc(-c2cnc(N)cn2)c(F)c1 [Example 532, 2-{[4′-(5-Aminopyrazin-2-yl)-3′-fluorobiphenyl-2-yl]oxy}pyridine-3-carbonitrile]
Human FLAP; wild type FLAP, HTRF format
  Ki: 6 nM
[1]; [2]
  IC50: 32 nM

## N#Cc1cccc(Oc2ccccc2-c2ccc(-c3cnc(N)nc3)c(F)c2)n1 [Example 618, 6-{[4′-(2-Aminopyrimidin-5-yl)-3′-fluorobiphenyl-2-yl]oxy}pyridine-2-carbonitrile]
Human FLAP; wild type FLAP, HTRF format
  Ki: 14.6 nM
[1]; [2]
  IC50: 211 nM

## Nc1cnc(-c2ccc(-c3ccccc3C(F)(F)F)cc2F)cn1 [Example 472, 5-[3-Fluoro-2′-(trifluoromethyl)biphenyl-4-yl]pyrazin-2-amine]
Human FLAP; wild type FLAP, HTRF format
  Ki: 145 nM
[1]; [2]
  IC50: 2520 nM

## CC(C)(C)NC(=O)c1cc(F)ccc1-c1ccc(-c2cnc(N)cn2)c(F)c1 [Example 502, 4′-(5-Aminopyrazin-2-yl)-N-tert-butyl-3′,4-difluorobiphenyl-2-carboxamide]
Human FLAP; wild type FLAP, HTRF format
  Ki: 83 nM
[1]; [2]
  IC50: 363 nM

## Nc1cnc(-c2ccc(-c3ccccc3Oc3cc(N4CCC4)ncn3)cc2F)cn1 [Example 539, 5-{2′-[(6-Azetidin-1-ylpyrimidin-4-yl)oxy]-3-fluorobiphenyl-4-yl}pyrazin-2-amine]
Human FLAP; wild type FLAP, HTRF format
  Ki: 2 nM
[1]; [2]
  IC50: 52 nM

## N#Cc1ncc(-c2ccccc2-c2ccc(-c3cnc(N)cn3)c(F)c2)cn1 [Example 849, 5-[4′-(5-Aminopyrazin-2-yl)-3′-fluorobiphenyl-2-yl]pyrimidine-2-carbonitrile]
Human FLAP; wild type FLAP, HTRF format
  Ki: 35.6 nM
[1]; [2]
  IC50: > 1000 nM

## CC(C)CS(=O)(=O)c1ccccc1-c1ccc(-c2cnc(N)cn2)c(F)c1 [Example 193, 5-{3-Fluoro-2′-[(2-methylpropyl)sulfonyl]biphenyl-4-yl}pyrazin-2-amine]
Human FLAP; [3]
  Ki: 26 nM
[1]; [4]
  IC50: 144 nM

## Cc1nc(N)ncc1-c1ccc(-c2ccccc2S(=O)(=O)NC(C)(C)C)cc1F [Example 454, 4-′-(2-Amino-4-methylpyrimidin-5-yl)-N-tert-butyl-3′-fluorobiphenyl-2-sulfonamide trifluoroacetic acid salt]
Human FLAP; wild type FLAP, HTRF format
  Ki: 12 nM
[1]; [2]
  IC50: 345 nM

## C[C@@H]1CNCCN1S(=O)(=O)c1ccccc1-c1ccc(-c2cnc(N)nc2)c(F)c1 [Example 247, 5-(3-Fluoro-2′-{[(2R)-2-methylpiperazin-1-yl]sulfonyl}biphenyl-4-yl)pyrimidin-2-amine]
Human FLAP; [3]
  Ki: 89 nM
[1]; [4]
  IC50: 197 nM

## CCS(=O)(=O)N(C)c1ccccc1-c1ccc(-c2cnc3[nH]ccc3n2)c(F)c1 [Example 493, N-[3′-Fluoro-4′-(5H-pyrrolo[2,3-b]pyrazin-2-yl)biphenyl-2-yl]-N-methylethanesulfonamide]
Human FLAP; wild type FLAP, HTRF format
  Ki: 7 nM
[1]; [2]
  IC50: 303 nM

## CC(=O)NCCNS(=O)(=O)c1ccccc1-c1ccc(-c2cnc(N)cn2)c(F)c1 [Example 155, N-[2-({[4′-(5-Aminopyrazin-2-yl)-3′-fluorobiphenyl-2-yl]sulfonyl}amino)ethyl]acetamide]
Human FLAP; [3]
  Ki: 12 nM
[1]; [4]
  IC50: 103 nM

## Nc1cnc(-c2ccc(-c3cccnc3OC3CCC3)cc2F)cn1 [Example 405, 5-{4-[2-(Cyclobutyloxy)pyridin-3-yl]-2-fluorophenyl}pyrazin-2-amine]
Human FLAP; wild type FLAP, HTRF format
  Ki: 100 nM
[1]; [2]
  IC50: 2710 nM

## Nc1cnc(-c2ccc(-c3ccccc3NS(=O)(=O)C(F)(F)F)cc2F)cn1 [Example 41, [4′-(5-Aminopyrazin-2-yl)-3′-fluorobiphenyl-2-yl]-1,1,1-trifluoromethanesulfonamide]
Human FLAP; [3]
  Ki: 14 nM
[1]; [4]
  IC50: 2690 nM

## Nc1cnc(-c2ccc(-c3ccccc3S(=O)(=O)N(C3CCOCC3)C3CC3)cc2F)cn1 [Example 140, 4′-(5-Aminopyrazin-2-yl)-N-cyclopropyl-3′-fluoro-N-(tetrahydro-2H-pyran-4-yl)biphenyl-2-sulfonamide]
Human FLAP; [3]
  Ki: 1 nM
[1]; [4]
  IC50: 11 nM

## Nc1cnc(-c2ccc(-c3ccccc3S(=O)(=O)N3CCCC3)cc2F)cn1 [Example 48, 5-[3-Fluoro-2′-(pyrrolidin-1-ylsulfonyl)biphenyl-4-yl]pyrazin-2-amine]
Human FLAP; [3]
  Ki: 11 nM
[1]; [4]
  IC50: 158 nM

## COCCCS(=O)(=O)c1ncccc1-c1ccc(-c2cnc(N)cn2)c(F)c1 [Example 818, 5-(2-Fluoro-4-(2-((3-methoxypropyl)sulfonyl)pyridine-3-yl)phenyl)pyrazin-2-amine hydrogen chloride salt]
Human FLAP; wild type FLAP, HTRF format
  Ki: 27.2 nM
[1]; [2]
  IC50: 51.6 nM

## Nc1cnc(-c2ccc(-c3ccccc3S(=O)(=O)N[C@@H]3CCCC[C@H]3O)cc2F)cn1 [Example 85, 4′-(5-Aminopyrazin-2-yl)-3′-fluoro-N-[(1R,2R)-2-hydroxycyclohexyl]biphenyl-2-sulfonamide]
Human FLAP; [3]
  Ki: 2 nM
[1]; [4]
  IC50: 20 nM
